Measurements from PMC11984392, “EphA2-targeted alpha-particle theranostics for enhancing PDAC treatment” (Theranostics, 2025).
*1 amine or outer side, *2 acyl side, *3 side chain or, on linkers, in order; H or OH if unused. Where a SMILES comes first, the peptide text is derived from it. Bridges are numbered along the chain shown (N, C = ends). [ ]: non-standard residue; d: D form. The star is where a group is joined. TATA = O=C(CC[*:1])N1CN(C(=O)CC[*:2])CN(C(=O)CC[*:3])C1; NOTA = O=C(O)CN1CCN(CC(=O)O)CCN(CC(=O)*)CC1; Hyp = O=C(O)[C@@H]1C[C@@H](O)CN1; hArg = N=C(N)NCCCC[C@H](N)C(=O)O; PEG2 = NCCOCCOCCC(=O)O; Sar = CNCC(=O)O

Tests used:
[1] = In vitro stability of radiotracers in saline / formulation buffer; format: physicochemical; conditions: 37 °C, radio-RP-HPLC
Procedure: The stability of the radiotracers was assessed in saline and human serum at 37 °C to mimic physiological conditions. Approximately 1.5 mCi of the radiotracer, prepared in 100-150 µL of saline, was added to 0.5 mL of either saline or human serum in separate microcentrifuge tubes. The mixtures were gently vortexed and then incubated at 37 °C in an incubator. At predetermined time-points (1, 2, and 3 h), 100 µL aliquots were collected from the incubation mixtures for analysis. For serum samples, proteins were removed by adding 100 µL of saline and 50 µL of ethanol, followed by ultrafiltration using 10 kDa centrifugal filters made of regenerative cellulose membranes. The filtration process was performed by centrifugation at 14,000 rpm for 10 min and repeated once more to ensure complete protein removal. The filtrate was collected for analysis. The radiochemical integrity of the radiotracer in both saline and serum was evaluated using radio-RP-HPLC.

[2] = PET tumor uptake (SUV) of [68Ga]AJ201; format: in vivo; conditions: total radioactivity

SMILES: CC(C)C[C@@H]1NC(=O)[C@@H]2CSCCC(=O)N3CN(CN(C3)C(=O)CCSC[C@H](NC(=O)[C@H](CC(=O)O)NC(=O)[C@H](CCCCNC(=N)N)NC(=O)[C@H](C)NC(=O)CNC(=O)CN(C)C(=O)CN(C)C(=O)CN(C)C(=O)[C@H](CCCNC(=N)N)NC(=O)CNC(=O)CCOCCOCCNC(=O)CN3CCN(CC(=O)O)CCN(CC(=O)O)CC3)C(=O)N3C[C@H](O)C[C@H]3C(=O)N[C@@H](CC(C)C)C(=O)N[C@@H](C(C)C)C(=O)N[C@@H](CC(N)=O)C(=O)N3CCC[C@H]3C(=O)N[C@@H](CC(C)C)C(=O)N2)C(=O)CCSC[C@@H](C(N)=O)NC(=O)[C@H](CCCCNC(=N)N)NC(=O)[C@H](Cc2c[nH]c3ccccc23)NC(=O)[C@@H](CC(=O)O)NC(=O)[C@@H]2CCCN2C(=O)[C@H](Cc2c[nH]cn2)NC1=O [[^68Ga]AJ201, metal not drawn] ({NOTA-PEG2}-GR[Sar][Sar][Sar]GA[hArg]DC[Hyp]LVNPLCLHP[dD]W[hArg]C-NH2; linker 10-17-24 via TATA)
- Time of stability in formulation buffer ([1]; 10% EtOH/saline): at least 3 h
- Stability in saline (radio-HPLC finding) ([1]; saline, up to 3 h, ~1.5 mCi in 0.5 mL): stable without noticeable degradation or impurity formation
- SUV [2]: 1.31 ± 0.11 SUV
